Laboratory results as given in patent US8772499B2, “TRPV3 modulators” (AbbVie Inc., priority 2011, dated 2014).
pIC50: −log10 of the molar value. Read-outs that look alike come from different tables or passages of the source.

Legend:
[1] = In vitro rat microsomal stability assay; assay type: in vitro ADME, rat (Sprague-Dawley)
Method in brief: (§1)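 Metabolic stability measured in Sprague-Dawley rat or human liver microsomes at 37 °C. Reactions supplemented with NADPH.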

human TRPV3 = target: T1, human TRPV3 (Homo sapiens, UniProt Q8NET8); assay: In vitro antagonism of recombinant human TRPV3 activation (FLIPR Tetra calcium assay); assay type: cell-based; conditions: HEK293 cells stably expressing human TRPV3, agonist 2-APB at 80 μM
T1 construct: expressed in transfected cells
T1 sequence (Q8NET8 1-790): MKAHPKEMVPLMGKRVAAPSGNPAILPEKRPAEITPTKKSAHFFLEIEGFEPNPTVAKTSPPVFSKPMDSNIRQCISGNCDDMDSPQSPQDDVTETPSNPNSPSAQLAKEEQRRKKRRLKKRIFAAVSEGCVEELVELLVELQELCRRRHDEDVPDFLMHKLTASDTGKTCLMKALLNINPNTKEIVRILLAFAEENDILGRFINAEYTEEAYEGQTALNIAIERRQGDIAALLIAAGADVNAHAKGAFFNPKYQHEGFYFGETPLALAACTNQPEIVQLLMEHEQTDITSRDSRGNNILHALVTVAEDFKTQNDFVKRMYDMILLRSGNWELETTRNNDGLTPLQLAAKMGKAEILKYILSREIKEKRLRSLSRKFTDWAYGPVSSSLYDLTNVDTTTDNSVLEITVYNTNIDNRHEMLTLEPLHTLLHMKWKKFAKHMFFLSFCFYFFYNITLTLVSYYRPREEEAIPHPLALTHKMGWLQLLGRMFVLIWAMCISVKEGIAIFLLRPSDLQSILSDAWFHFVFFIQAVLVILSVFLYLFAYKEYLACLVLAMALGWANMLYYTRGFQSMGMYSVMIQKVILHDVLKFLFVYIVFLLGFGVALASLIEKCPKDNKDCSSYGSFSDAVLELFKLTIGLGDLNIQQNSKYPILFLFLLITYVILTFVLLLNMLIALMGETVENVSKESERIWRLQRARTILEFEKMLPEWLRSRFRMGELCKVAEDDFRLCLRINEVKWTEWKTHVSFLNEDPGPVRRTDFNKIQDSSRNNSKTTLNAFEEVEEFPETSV
Method in brief: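 HEK293 cells stably expressing human TRPV3, loaded with Calcium-4 dye for 90–120 min, received compound in DPBS, then 80 μM 2-APB (EC80) 3 min later. Max-minus-min fluorescence expressed as % of 2-APB response without antagonist; IC50 values mostly averages of n≥2 runs.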

[2] = In vitro human microsomal stability assay; assay type: in vitro ADME
Method in brief: as §1

[3] = Sprague-Dawley, rat, microsomes, 0.5 h, 0.5 μM, pH 7.4
[4] = actual measured value shown parenthetically, in most cases average of at least two runs, read-out: IC50
[5] = human, microsomes, 0.5 h, 0.5 μM, pH 7.4
[6] = reported range, read-out: IC50 (range class)
[7] = rat liver microsomes (Sprague-Dawley), 0.5 μM substrate, 0.25 mg/mL microsomal protein, pH 7.4, 37° C., NADPH, 30 minutes
[8] = human liver microsomes, 0.5 μM substrate, 0.25 mg/mL microsomal protein, pH 7.4, 37° C., NADPH, 30 minutes

Compound | RAT MICROSOMAL STABILITY (% REMAINING AFTER 30 MINUTES) [1, 3] [%] | pIC50 (human TRPV3; [4]) | HUMAN MICROSOMAL STABILITY (% REMAINING AFTER 30 MINUTES) [2, 5] [%] | pIC50 (human TRPV3; [6]) | RAT MICROSOMAL STABILITY (% REMAINING AFTER 30 MINUTES) [1, 7] [%] | HUMAN MICROSOMAL STABILITY (% REMAINING AFTER 30 MINUTES) [2, 8] [%]
OC(c1ccccn1)C1(C2CCOc3ccccc32)CCC1 (centres unmarked) [Example 57, [1-(3,4-dihydro-2H-chromen-4-yl)cyclobutyl](pyridin-2-yl)methanol] | 10 | 5.03 | 16 |  |  | 
OC(c1ccccn1)C1(C(c2ccccc2)C(F)(F)F)CCC1 (centres unmarked) [Example 58, pyridin-2-yl[1-(2,2,2-trifluoro-1-phenylethyl)cyclobutyl]methanol] | 33 | 5.44 | 36 |  |  | 
OC(c1ccccn1)C1(c2ccc(Cl)c(Cl)c2)CCOCC1 (centres unmarked) [Example 59, [4-(3,4-dichlorophenyl)tetrahydro-2H-pyran-4-yl](pyridin-2-yl)methanol] | 12 | 5.75 | 45 |  |  | 
OC(c1ccccn1)C1(c2cccc(OC(F)(F)F)c2)CCOCC1 (centres unmarked) [Example 66, pyridin-2-yl{4-[3-(trifluoromethoxy)phenyl]tetrahydro-2H-pyran-4-yl}-methanol] | 23 | 5.82 | 31 |  |  | 
OC(c1ccccn1)C1(c2ccc(OC(F)(F)F)cc2)CCOCC1 (centres unmarked) [Example 67, pyridin-2-yl{4-[4-(trifluoromethoxy)phenyl]tetrahydro-2H-pyran-4-yl}-methanol] | 47 | 5.59 | 58 |  |  | 
OC(CC1(c2cccc(C(F)(F)F)c2)CCC1)c1ccccn1 (centres unmarked) [Example 74, 1-(pyridin-2-yl)-2-{1-[3-(trifluoromethyl)phenyl]cyclobutyl}ethanol] | 0.45 | 6.39 | 6.8 |  |  | 
OC(CC1(c2ccc(C(F)(F)F)cc2)CCC1)c1ccccn1 (centres unmarked) [Example 75, 1-(pyridin-2-yl)-2-{1-[4-(trifluoromethyl)phenyl]cyclobutyl}ethanol] | 0.74 | 6.03 | 44 |  |  | 
OC(CC1(c2ccc(OC(F)(F)F)cc2)CCC1)c1ccccn1 (centres unmarked) [Example 76, 1-(pyridin-2-yl)-2-{1-[4-(trifluoromethoxy)phenyl]cyclobutyl}ethanol] | 0.47 | 6.19 | 39 |  |  | 
OC(CC1(c2cccc(OC(F)(F)F)c2)CCC1)c1ccccn1 (centres unmarked) [Example 77, 1-(pyridin-2-yl)-2-{1-[3-(trifluoromethoxy)phenyl]cyclobutyl}ethanol] | 0.94 | 6.12 | 11 |  |  | 
OC(c1ccccn1)C1(c2ccc(Cl)c(Cl)c2)CC(F)(F)C1 (centres unmarked) [Example 82, [1-(3,4-dichlorophenyl)-3,3-difluorocyclobutyl](pyridin-2-yl)methanol] | 16 | 6.11 | 35 |  |  | 
OC(c1ccccn1)C1(c2ccc(C(F)(F)F)nc2)CCC1 (centres unmarked) [Example 85, pyridin-2-yl{1-[6-(trifluoromethyl)pyridin-3-yl]cyclobutyl}methanol] | 76 | 5.25 | 82 |  |  | 
OC(c1ccccn1)C1(c2ccc(Cl)c(Cl)c2)COC1 (centres unmarked) [Example 87, [3-(3,4-dichlorophenyl)oxetan-3-yl](pyridin-2-yl)methanol] | 8.6 | < 4.70 | 47 | < 4.70 |  | 
Cc1ccccc1C1(C(O)c2ccccn2)CCCO1 (centres unmarked) [Example 90, [2-(2-methylphenyl)tetrahydrofuran-2-yl](pyridin-2-yl)methanol] | <0.01 | 6.34 | 35 |  |  | 
Cc1cccc(C2(C(O)c3ccccn3)CCCO2)c1 (centres unmarked) [Example 91, [2-(3-methylphenyl)tetrahydrofuran-2-yl](pyridin-2-yl)methanol] | 1.0 | 6.48 | 46 |  |  | 
OC(c1ccccn1)C1(c2ccccc2F)CCCO1 (centres unmarked) [Example 102] |  | < 4.70 |  | < 4.70 | 0.55 | 45
OC(c1ccccn1)C1(c2ccccc2F)CCCO1 (stereo not drawn) [Example 103, (syn)-[2-(2-fluorophenyl)tetrahydrofuran-2-yl](pyridin-2-yl)methanol] | 0.012 | 5.70 | 73 |  |  | 
OC(c1ccccn1)C1(c2cncc(C(F)(F)F)c2)CCC1 (centres unmarked) [Example 110, pyridin-2-yl{1-[5-(trifluoromethyl)pyridin-3-yl]cyclobutyl}methanol] | 2.8 | 6.30 | 8.0 |  |  | 
Cl.O[C@H](c1ccccn1)C1(c2ccc(Cl)c(Cl)c2)CC(F)(F)C1 [Example 111, (S)-[1-(3,4-dichlorophenyl)-3,3-difluorocyclobutyl](pyridin-2-yl)methanol hydrochloride] |  | 6.72 |  |  | 23 | 52
OC(c1ccccn1)C1(c2ccc(OC(F)(F)F)cc2)CC(F)(F)C1 (centres unmarked) [Example 112, {3,3-difluoro-1-[4-(trifluoromethoxy)phenyl]cyclobutyl}(pyridin-2-yl)-methanol] | 75 | 6.52 | 75 |  |  | 
OC(c1ccccn1)C1(c2cccc(C(F)(F)F)c2)CC(F)(F)C1 (centres unmarked) [Example 113, {3,3-difluoro-1-[3-(trifluoromethyl)phenyl]cyclobutyl}(pyridin-2-yl)-methanol] | 18 | 6.59 | 24 |  |  | 
OC(c1ccccn1)C1(c2cccc(OC(F)(F)F)c2)CC(F)(F)C1 (centres unmarked) [Example 114, {3,3-difluoro-1-[3-(trifluoromethoxy)phenyl]cyclobutyl}(pyridin-2-yl)-methanol] | 11 | 6.64 | 6.9 |  |  | 
OC(c1ccccn1)C1(c2ccc(C(F)(F)F)cn2)CCC1 (centres unmarked) [Example 115, pyridin-2-yl{1-[5-(trifluoromethyl)pyridin-2-yl]cyclobutyl}methanol] | 81 | 4.71 | >85 |  |  | 
OC(c1ccccn1)C1(c2cc(C(F)(F)F)ccn2)CCC1 (centres unmarked) [Example 116, pyridin-2-yl{1-[4-(trifluoromethyl)pyridin-2-yl]cyclobutyl}methanol] | 25 | 6.12 | 37 |  |  | 
O=C1CC(c2ccc(Cl)c(Cl)c2)([C@H](O)c2ccccn2)C1 [Example 117, 3-(3,4-dichlorophenyl)-3-[(S)-hydroxy(pyridin-2-yl)methyl]cyclobutanone] | 50 | 5.62 | 18 |  |  | 
